Laboratory results: ChEMBL document CHEMBL1201862, “PubChem BioAssay data set” (2004)
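Five concentrations, 48 hours, 96-well plates. Abbreviation: GI50, concentration required for 50% inhibition of growth.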 Calls of active or inactive are those of the source. Cut-off read from the data, not from the text of the source: active = GI50 up to about 1.1 µM and inactive = higher.

Key:
Assay in all cases: NCI-60 cell line screen, 48 h
HT-29 = test system: HT-29
SF-268 = test system: SF-268
DLD-1 = test system: DLD-1
786-0 = test system: 786-0
SK-MEL-28 = test system: SK-MEL-28
SK-MEL-2 = test system: SK-MEL-2
OVCAR-8 = test system: OVCAR-8
HCT-116 = test system: HCT-116
K562 = test system: K562
SW-620 = test system: SW-620
CCRF-CEM = test system: CCRF-CEM
UO-31 = test system: UO-31
MOLT-4 = test system: MOLT-4
SNB-19 = test system: SNB-19
M14 = test system: M14
SNB-78 = test system: SNB-78
HCT-15 = test system: HCT-15
NCI-H460 = test system: NCI-H460
KM12 = test system: KM12
SF-295 = test system: SF-295
A498 = test system: A498
HL-60 = test system: HL-60
COLO 205 = test system: COLO 205
TK-10 = test system: TK-10
XF498 = test system: XF498
RXF 631 = test system: RXF 631
U-251 = test system: U-251
HOP-18 = test system: HOP-18
HOP-62 = test system: HOP-62
SNB-75 = test system: SNB-75
M19-MEL = test system: M19-MEL
SR = test system: SR
ACHN = test system: ACHN
SK-OV-3 = test system: SK-OV-3
NCI-H23 = test system: NCI-H23
SF-539 = test system: SF-539
DMS-114 = test system: DMS-114
A549 = test system: A549
SK-MEL-5 = test system: SK-MEL-5
UACC-257 = test system: UACC-257
KM-20L2 = test system: KM-20L2
Malme-3M = test system: Malme-3M
HOP-92 = test system: HOP-92
SN12C = test system: SN12C
IGROV-1 = test system: IGROV-1
HCC 2998 = test system: HCC 2998
LOX IMVI = test system: LOX IMVI
UACC-62 = test system: UACC-62
CAKI-1 = test system: CAKI-1
LXFL 529 = test system: LXFL 529
DMS-273 = test system: DMS-273
NCI-H522 = test system: NCI-H522
OVCAR-5 = test system: OVCAR-5
EKVX = test system: EKVX
OVCAR-3 = test system: OVCAR-3
NCI-H226 = test system: NCI-H226
OVCAR-4 = test system: OVCAR-4
RPMI-8226 = test system: RPMI-8226
RXF 393 = test system: RXF 393

In the case of `CCOC(=O)NC(=O)c1cn(CC(=O)NCC(=O)NCC(=O)N2CCN(CCn3c(C)nc(C(N)=O)c3N)CC2)c(=O)[nH]c1=O`, the GI50 (HT-29) is reported as > 100 µM (inactive), the GI50 (SF-268) is reported as > 100 µM (inactive) and the GI50 (DLD-1) is reported as > 100 µM (inactive). For the same compound, the GI50 (786-0) was > 100 µM (inactive), the GI50 (SK-MEL-28) was > 100 µM (inactive) and the GI50 (SK-MEL-2) was > 100 µM (inactive). For the same compound, the GI50 (OVCAR-8) was > 100 µM (inactive), the GI50 (HCT-116) was > 100 µM (inactive) and the GI50 (K562) was > 100 µM (inactive). For the same compound, the GI50 (SW-620) was > 100 µM (inactive), the GI50 (CCRF-CEM) was > 100 µM (inactive) and the GI50 (UO-31) was > 100 µM (inactive). For the same compound, the GI50 (MOLT-4) was > 100 µM (inactive), the GI50 (SNB-19) was > 100 µM (inactive) and the GI50 (M14) was > 100 µM (inactive). The GI50 (SNB-78) was > 100 µM (inactive), the GI50 (HCT-15) was > 100 µM and the GI50 (NCI-H460) was > 100 µM (inactive). The GI50 (KM12) was > 100 µM (inactive), the GI50 (SF-295) was > 100 µM (inactive) and the GI50 (A498) was > 100 µM (inactive). For the same compound, the GI50 (HL-60) was > 100 µM (inactive), the GI50 (COLO 205) was > 100 µM (inactive) and the GI50 (TK-10) was > 100 µM (inactive). For the same compound, the GI50 (XF498) was > 100 µM (inactive), the GI50 (RXF 631) was > 100 µM (inactive) and the GI50 (U-251) was > 100 µM (inactive). The GI50 (HOP-18) was > 100 µM (inactive), the GI50 (HOP-62) was > 100 µM (inactive) and the GI50 (SNB-75) was > 100 µM (inactive). The GI50 (M19-MEL) was > 100 µM (inactive), the GI50 (SR) was > 100 µM (inactive) and the GI50 (ACHN) was > 100 µM (inactive). The GI50 (SK-OV-3) was > 100 µM (inactive), the GI50 (NCI-H23) was > 100 µM (inactive) and the GI50 (SF-539) was > 100 µM (inactive). The GI50 (DMS-114) was > 100 µM (inactive), the GI50 (A549) was > 100 µM (inactive) and the GI50 (SK-MEL-5) was > 100 µM (inactive). For the same compound, the GI50 (UACC-257) was > 100 µM (inactive), the GI50 (KM-20L2) was > 100 µM (inactive) and the GI50 (Malme-3M) was > 100 µM (inactive). For the same compound, the GI50 (HOP-92) was > 100 µM (inactive), the GI50 (SN12C) was > 100 µM (inactive) and the GI50 (IGROV-1) was > 100 µM (inactive). For the same compound, the GI50 (HCC 2998) was > 100 µM (inactive), the GI50 (LOX IMVI) was > 100 µM (inactive) and the GI50 (UACC-62) was > 100 µM (inactive). For the same compound, the GI50 (CAKI-1) was > 100 µM (inactive) and the GI50 (LXFL 529) was > 100 µM (inactive).
In the case of `O=C(Nc1ccccc1Br)c1cccc([N+](=O)[O-])c1O`, the GI50 (HT-29) is reported as 4.73 µM (inactive), the GI50 (DMS-273) is reported as 3.53 µM (inactive) and the GI50 (SF-268) is reported as 4.47 µM (inactive). The GI50 (DLD-1) was 4.32 µM (inactive), the GI50 (786-0) was 3.99 µM (inactive) and the GI50 (SK-MEL-28) was 4.37 µM (inactive). For the same compound, the GI50 (SK-MEL-2) was 6.9 µM (inactive), the GI50 (OVCAR-8) was 4.16 µM (inactive) and the GI50 (NCI-H522) was 2.03 µM (inactive). For the same compound, the GI50 (HCT-116) was 3.84 µM (inactive), the GI50 (K562) was 3.13 µM (inactive) and the GI50 (SW-620) was 6.81 µM (inactive). For the same compound, the GI50 (CCRF-CEM) was 2.78 µM (inactive), the GI50 (UO-31) was 1.89 µM (inactive) and the GI50 (MOLT-4) was 2.26 µM (inactive). For the same compound, the GI50 (SNB-19) was 3.81 µM (inactive), the GI50 (M14) was 4.32 µM (inactive) and the GI50 (SNB-78) was 5.09 µM (inactive). For the same compound, the GI50 (OVCAR-5) was 5.13 µM (inactive), the GI50 (HCT-15) was 4.6 µM and the GI50 (NCI-H460) was 4.6 µM (inactive). For the same compound, the GI50 (KM12) was 4.26 µM (inactive), the GI50 (SF-295) was 3.87 µM (inactive) and the GI50 (A498) was 2.49 µM (inactive). The GI50 (HL-60) was 2.9 µM (inactive), the GI50 (COLO 205) was 3.66 µM (inactive) and the GI50 (TK-10) was 1.54 µM (inactive). For the same compound, the GI50 (RXF 631) was 17.7 µM (inactive), the GI50 (U-251) was 2.85 µM (inactive) and the GI50 (HOP-18) was 1.66 µM (inactive). The GI50 (HOP-62) was 2.32 µM (inactive), the GI50 (SNB-75) was 5.25 µM (inactive) and the GI50 (M19-MEL) was 2.51 µM (inactive). For the same compound, the GI50 (EKVX) was 3.04 µM (inactive), the GI50 (OVCAR-3) was 2.07 µM (inactive) and the GI50 (NCI-H226) was 3.3 µM (inactive). The GI50 (SR) was 4.51 µM (inactive), the GI50 (OVCAR-4) was 3.01 µM (inactive) and the GI50 (ACHN) was 3.67 µM (inactive). For the same compound, the GI50 (SK-OV-3) was 3.95 µM (inactive), the GI50 (NCI-H23) was 2.5 µM (inactive) and the GI50 (SF-539) was 5.61 µM (inactive). The GI50 (RPMI-8226) was 1.52 µM (inactive), the GI50 (DMS-114) was 3.18 µM (inactive) and the GI50 (A549) was 3.37 µM (inactive). The GI50 (SK-MEL-5) was 2.16 µM (inactive), the GI50 (RXF 393) was 1.86 µM (inactive) and the GI50 (UACC-257) was 2.01 µM (inactive). The GI50 (KM-20L2) was 4.09 µM (inactive), the GI50 (Malme-3M) was 2.48 µM (inactive) and the GI50 (HOP-92) was 1.63 µM (inactive). For the same compound, the GI50 (SN12C) was 3.94 µM (inactive), the GI50 (IGROV-1) was 2.88 µM (inactive) and the GI50 (HCC 2998) was 2.49 µM (inactive). For the same compound, the GI50 (LOX IMVI) was 2.38 µM (inactive), the GI50 (UACC-62) was 1.91 µM (inactive) and the GI50 (CAKI-1) was 3.37 µM (inactive). For the same compound, the GI50 (LXFL 529) was 3.15 µM (inactive).
